Measurements as given in paper PMC6856721, “Discovery of a Novel DNA Gyrase-Targeting Antibiotic through the Chemical Perturbation of Streptomyces venezuelae Sporulation” (Cell Chemical Biology, 2019).

What was measured:
S. aureus gyrase = molecular target: T1, S. aureus gyrase (Staphylococcus aureus, UniProt P0A0K8+P20831); assay: S. aureus gyrase relaxation; assay type: biochemical; settings: ATP-independent
T1 construct: purchased Inspiralis Inc. SAS4001 (supercoiling kit); SAGC001 (cleavage assay kit)
T1 sequence (P0A0K8 whole entry): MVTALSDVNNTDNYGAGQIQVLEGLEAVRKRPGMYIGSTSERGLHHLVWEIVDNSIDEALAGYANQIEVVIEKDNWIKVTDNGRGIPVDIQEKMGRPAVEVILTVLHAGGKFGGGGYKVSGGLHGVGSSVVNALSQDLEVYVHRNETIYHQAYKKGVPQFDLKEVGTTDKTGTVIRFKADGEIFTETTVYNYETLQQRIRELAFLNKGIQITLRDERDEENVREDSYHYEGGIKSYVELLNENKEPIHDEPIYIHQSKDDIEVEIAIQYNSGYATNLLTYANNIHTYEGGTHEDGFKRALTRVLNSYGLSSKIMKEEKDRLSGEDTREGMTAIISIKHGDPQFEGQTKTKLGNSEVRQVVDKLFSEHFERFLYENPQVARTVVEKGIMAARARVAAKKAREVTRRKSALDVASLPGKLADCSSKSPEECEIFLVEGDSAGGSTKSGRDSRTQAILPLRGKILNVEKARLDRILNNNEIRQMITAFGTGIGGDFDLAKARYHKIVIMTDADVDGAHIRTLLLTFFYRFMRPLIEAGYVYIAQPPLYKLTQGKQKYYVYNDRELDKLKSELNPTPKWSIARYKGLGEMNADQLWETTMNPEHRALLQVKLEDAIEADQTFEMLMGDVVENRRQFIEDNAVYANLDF
T1 sequence (P20831 whole entry): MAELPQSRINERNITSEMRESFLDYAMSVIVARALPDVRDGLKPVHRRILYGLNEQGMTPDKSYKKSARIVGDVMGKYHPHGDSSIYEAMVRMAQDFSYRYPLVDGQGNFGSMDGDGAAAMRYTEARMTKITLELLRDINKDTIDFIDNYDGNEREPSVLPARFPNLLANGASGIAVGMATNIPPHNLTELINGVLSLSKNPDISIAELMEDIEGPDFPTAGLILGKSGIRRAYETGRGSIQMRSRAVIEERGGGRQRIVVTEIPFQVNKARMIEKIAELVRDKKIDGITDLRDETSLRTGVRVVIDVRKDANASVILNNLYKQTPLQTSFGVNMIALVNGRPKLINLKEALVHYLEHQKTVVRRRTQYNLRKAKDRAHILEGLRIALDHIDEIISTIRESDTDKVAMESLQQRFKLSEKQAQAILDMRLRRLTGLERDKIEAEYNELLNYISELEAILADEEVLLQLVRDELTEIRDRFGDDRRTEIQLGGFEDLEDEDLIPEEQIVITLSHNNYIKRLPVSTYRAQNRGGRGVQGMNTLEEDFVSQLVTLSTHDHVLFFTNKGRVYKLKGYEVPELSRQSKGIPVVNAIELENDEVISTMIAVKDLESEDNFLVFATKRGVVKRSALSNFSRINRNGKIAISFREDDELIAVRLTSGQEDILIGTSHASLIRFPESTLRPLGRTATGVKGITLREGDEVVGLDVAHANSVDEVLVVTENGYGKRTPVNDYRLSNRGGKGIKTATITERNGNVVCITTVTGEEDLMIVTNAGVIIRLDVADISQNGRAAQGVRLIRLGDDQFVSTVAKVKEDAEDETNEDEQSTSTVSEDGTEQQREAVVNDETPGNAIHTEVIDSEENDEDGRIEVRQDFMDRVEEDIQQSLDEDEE
Method: 1 U of gyrase was incubated with 0.5 μg of supercoiled pBR322 DNA in a 30 μL reaction at 37°C for 60 minutes under the following conditions: 50 mM Tris.HCl (pH 7.5), 5 mM MgCl2,5 mM DTT, 350 mM potassium glutamate, and 0.05 mg/mL albumin. Each reaction was stopped by the addition of 30 μL chloroform/iso-amyl alcohol (24:1) and 20 μl Stop Dye, before being loaded on a 1.0% TAE agarose gel. Gels run at 80 V for 2 hours.

HEK293 cells = assay: Toxicity against human HEK293 cells; assay type: cell-based
Text: The experimental model that we have employed is Staphyloccocus aureus strain ATCC 29213. We have used the cell line HEK293, as a control for EN-7 toxicity against human cells.

For `O=C(/C=C/c1cccc2cccnc12)NNC(=O)c1cc(-c2ccccc2)on1` [EN-7], the “Inhibition of gyrase-induced DNA relaxation” value (S. aureus gyrase) was “inhibit”, the IC50 (S. aureus gyrase; read-out: IC50, gyrase-induced relaxation) was 100 to 500 nM and the “Toxicity to human HEK293 cells” value (HEK293 cells) was “no toxicity”.
